Results: patent US20060211748A1, “Sulphydryl compounds in combination with sulpha compounds” (priority 2002, published 2006)

What was measured:
[1] = test system: ^51Cr-labelled erythrocytes; assay: Half-life of 51Cr-labelled erythrocytes challenged in vitro with DDS N-hydroxylamine and re-introduced to autologous rats; format: in vivo; details: red cells incubated two hours with DDS N-hydroxylamine 0.05 to 0.5 millimolar with N-acetyl-L-cysteine 2 to 10 millimolar, reintroduced into autologous rat
Method: Blood is drawn from laboratory rats into heparinized tubes, washed using conventional methods, and resuspended in buffered saline solution. Red blood cells are labeled with ^51Cr as chromate using the CPD standard method known to those skilled in the art. After resuspension in isotonic saline, DDS N-hydroxylamine alone (control) or with N-acetyl-L-cysteine (treatment) are added at final concentrations of 0.05 to 0.5 millimolar and 2 millimolar to 10 millimolar, respectively, and incubated for two hours. A 0.5 milliliter sample of the washed and resuspended red blood cells is then reintroduced into the autologous animal. Half-life of the labeled erythrocytes is determined by blood sampling every two days and counting of radioactive decay in the sample using a gamma counter.

[2] = treatment of opportunistic infections associated with AIDS; cited from earlier work

Structure (SMILES) | Half-life of ^51Cr-labelled erythrocytes [1] | Discontinuation of clinical use due to toxicity [2]
CC(=O)N[C@@H](CS)C(=O)O [N-acetyl-L-cysteine] | able to preserve the normal half-life | 
Nc1ccc(S(=O)(=O)c2ccc(N)cc2)cc1 [DDS, 4,4′-diaminodiphenylsulphone] |  | about 25 % of patients
